# Experimental data as given in article PMC6264549, “Synthesis and Biological Evaluation of 3-Substituted-indolin-2-one Derivatives Containing Chloropyrrole Moieties” (Molecules, 2011).
# Legend:
# oral epithelial (KB) = test: MTT cell growth inhibition assay, KB; assay type: cell-based; conditions: Homo sapiens, 48 h, KB cells, two days
# Method: (§1) The antitumor activities of 14a-r were evaluated in vitro on four tumor cell lines, including non-small cell lung cancer (A549), oral epithelial (KB), melanoma (K111) and large cell lung cancer cell lines (NCI-H460) by the MTT assay, and the results are summarized in Table 1.
# (§2) Non-small cell lung cancer (A549), oral epithelial (KB), large cell lung cancer (NCI-H460) and melanoma cell lines (K111) were cultured in Dulbecco’s modified Eagle medium (GIBCO) containing 10% (v/v) inactivated newborn calf serum (Boren Bio-Pharmaceutical Co., Ltd.: Guangzhou, China), […] L-glutamine (SANGON), […] penicillin, 100 µg/mL streptomycin. Cells were grown in a 5% CO2 incubator at 37 °C.
# (§3) The antitumor activities were determined by the MTT assay. Cells (2 × 10^3 cells/well) were seeded in 96-well plates. After incubation overnight, each compound, which was dissolved in dimethylsulfoxide (DMSO) and diluted with phosphate buffer solution (PBS), was added to each well and the cells were cultured for another two days at 37 °C. 20 μL (5 mg/mL) MTT solution was added to per well and the culture continued for another 3–4 h. The medium was removed and 100 μL DMSO was added to dissolve formazan crystals. Absorbance was measured at 492 nm using an ELISA reader (Thermo). The antitumor activities were expressed as IC50.
# melanoma (K111) = test: MTT cell growth inhibition assay, K111; assay type: cell-based; conditions: 48 h, K111 cells, two days, read-out: IC50 ± SD K111
# Method: as §1, §2, §3
# [1] = test system: non-small cell lung cancer (A549); test: MTT cell growth inhibition assay, A549; assay type: cell-based; conditions: Homo sapiens, 48 h, A549 cells, two days, read-out: IC50 ± SD A549
# Method: as §1, §2, §3
# [2] = test system: large cell lung cancer cell lines (NCI-H460); test: MTT cell growth inhibition assay, NCI-H460; assay type: cell-based; conditions: Homo sapiens, 48 h, NCI-H460 cells, two days, read-out: IC50 ± SD NCI-H460
# Method: as §1, §2, §3
# VEGFR2 tyrosine kinase = VEGFR2 tyrosine kinase (Homo sapiens, UniProt P35968); test: VEGFR2 inhibition assay (ELISA); assay type: biochemical; conditions: 5.0 µM ATP, Poly (Glu, Tyr)4:1 substrate, read-out: IC50 ± SD VEGFR2
# Chain of VEGFR2 tyrosine kinase (P35968 20-1356): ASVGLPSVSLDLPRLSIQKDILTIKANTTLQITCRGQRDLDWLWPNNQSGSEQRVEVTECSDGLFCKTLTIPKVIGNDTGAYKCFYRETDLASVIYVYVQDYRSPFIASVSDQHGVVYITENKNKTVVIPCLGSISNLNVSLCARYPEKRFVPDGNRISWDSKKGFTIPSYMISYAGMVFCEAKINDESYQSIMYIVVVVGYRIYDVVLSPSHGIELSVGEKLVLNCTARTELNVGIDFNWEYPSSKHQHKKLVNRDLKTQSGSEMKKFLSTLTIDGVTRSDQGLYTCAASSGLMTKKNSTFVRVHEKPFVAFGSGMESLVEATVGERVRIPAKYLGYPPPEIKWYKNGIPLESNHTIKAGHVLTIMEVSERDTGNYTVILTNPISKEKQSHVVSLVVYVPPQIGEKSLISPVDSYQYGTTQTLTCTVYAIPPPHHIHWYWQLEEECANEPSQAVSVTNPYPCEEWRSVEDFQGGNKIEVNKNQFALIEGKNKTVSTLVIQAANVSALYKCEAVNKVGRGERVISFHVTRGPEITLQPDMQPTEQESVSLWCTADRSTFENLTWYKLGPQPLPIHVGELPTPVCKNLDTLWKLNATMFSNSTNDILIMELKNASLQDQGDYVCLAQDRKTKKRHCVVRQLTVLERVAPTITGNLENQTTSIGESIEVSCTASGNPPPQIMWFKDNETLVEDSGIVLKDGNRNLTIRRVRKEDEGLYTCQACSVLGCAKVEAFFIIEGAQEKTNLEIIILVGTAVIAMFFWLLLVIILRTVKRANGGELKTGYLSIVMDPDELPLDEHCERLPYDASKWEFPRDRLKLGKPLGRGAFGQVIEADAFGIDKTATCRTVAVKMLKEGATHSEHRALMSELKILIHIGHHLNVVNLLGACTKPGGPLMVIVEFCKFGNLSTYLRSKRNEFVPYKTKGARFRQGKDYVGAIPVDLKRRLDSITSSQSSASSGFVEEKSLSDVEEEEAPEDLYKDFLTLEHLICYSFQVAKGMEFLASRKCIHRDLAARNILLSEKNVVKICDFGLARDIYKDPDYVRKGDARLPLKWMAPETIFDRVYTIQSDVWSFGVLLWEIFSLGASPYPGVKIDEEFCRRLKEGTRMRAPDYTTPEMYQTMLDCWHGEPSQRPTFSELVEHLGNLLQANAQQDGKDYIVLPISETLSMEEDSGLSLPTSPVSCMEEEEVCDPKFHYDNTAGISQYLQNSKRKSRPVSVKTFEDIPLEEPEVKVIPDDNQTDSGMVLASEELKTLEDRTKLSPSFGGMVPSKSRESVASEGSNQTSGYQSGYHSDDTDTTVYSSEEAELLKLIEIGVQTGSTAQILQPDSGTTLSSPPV
# Method: Seven compounds in the 14a–r series with low IC50 values on the tumor cell lines were evaluated for their inhibition of VEGFR2 using an enzyme-linked immunosorbent assay (ELISA), and the data are summarized in Table 2.
# The VEGFR2 inhibition assay was performed by enzyme-linked immunosorbent assay (ELISA) in 96-well plates pre-coated with 2.5 µg/well Poly (Glu, Tyr)4:1 as a substrate. Each well was treated with 90 µL of 5.0 µM ATP (Amresco) solution and 10 µL of one of the seven compounds at varying concentrations, which were diluted in reaction buffer (50 mM HEPES pH 7.4, 20 mM MgCl2, 0.1 mM Na3VO4, 1 mM DTT). […] The reaction was initiated by adding 1 µL/well of VEGFR2 tyrosine kinase. After incubation for 1 h at 37 °C, the plates were washed three times with phosphate buffered saline containing 0.1% Tween-20 (T-PBS). Next, anti-phosphotyrosine (PY99; 1:1,000 dilution, 100 μL/well) antibody was added. After 1 h incubation at room temperature, the plates were washed three times, and goat anti-mouse IgG horseradish peroxidase (100 μL/well of 1:2,000 dilution) diluted in T-PBS was added. The plates were reincubated at room temperature for 1 h, and washed as before. Finally, color development solution (0.03% H2O2 and 2 mg/mL o-phenylenediamine in 0.1 M citrate buffer, pH 5.5, 100 µL/well) was added and the plates were incubated at room temperature until color emerged. The reaction was terminated by the addition of 2 M H2SO4 (50 µL/well), and A492 was measured using a tunable wavelength microplate reader (Molecular Devices SPECTRAMAX190). The inhibition rate was calculated using the equation: [1 − (A492/A492 control)] × 100%.
Structure (SMILES),IC50 (oral epithelial (KB)) [µM],IC50 (melanoma (K111)) [µM],IC50 [1] [µM],IC50 [2] [µM],melting point [°C],IC50 (VEGFR2 tyrosine kinase) [µM]
"Cc1[nH]c(/C=C2\C(=O)Nc3ccc(F)cc32)c(Cl)c1C(=O)NCCN1CCOCC1 [Compound 14a, (Z)-4-Chloro-5-((5-fluoro-2-oxoindolin-3-ylidene)methyl)-2-methyl-N-(2-morpholinoethyl)-1H-pyrrole-3-carboxamide]",52.9 ± 7.93,> 100,1.47 ± 0.13,> 100,268.5 to 269.7,–
"Cc1[nH]c(/C=C2\C(=O)Nc3ccc(F)cc32)c(Cl)c1C(=O)N1CCN(C)CC1 [Compound 14b, (Z)-3-((3-Chloro-5-methyl-4-(4-methylpiperazine-1-carbonyl)-1H-pyrrol-2-yl)methylene)-5-fluoroindolin-2-one]",> 100,> 100,> 100,> 100,276.7 to 278.5,–
"Cc1[nH]c(/C=C2\C(=O)Nc3ccc(F)cc32)c(Cl)c1C(=O)NC1CNC1 [Compound 14c, (Z)-N-(azetidin-3-yl)-4-chloro-5-((5-fluoro-2-oxoindolin-3-ylidene)methyl)-2-methyl-1H-pyrrole-3-carboxamide]",1.35 ± 0.12,3.41 ± 0.52,2.43 ± 0.26,1.41 ± 0.17,230.5 to 232,0.0068 ± 0.0018
"CCCNC(=O)c1c(C)[nH]c(/C=C2\C(=O)Nc3ccc(F)cc32)c1Cl [Compound 14d, (Z)-4-Chloro-5-((5-fluoro-2-oxoindolin-3-ylidene)methyl)-2-methyl-N-propyl-1H-pyrrole-3-carboxamide]",> 100,> 100,> 100,> 100,> 290,–
"Cc1[nH]c(/C=C2\C(=O)Nc3ccc(F)cc32)c(Cl)c1C(=O)NCCCN(C)C [Compound 14e, (Z)-4-Chloro-N-(3-(dimethylamino)propyl)-5-((5-fluoro-2-oxoindolin-3-ylidene)methyl)-2-methyl-1H-pyrrole-3-carboxamide]",2.88 ± 0.33,> 100,2.33 ± 0.31,> 100,235.1 to 237.3,–
"Cc1[nH]c(/C=C2\C(=O)Nc3ccc(F)cc32)c(Cl)c1C(=O)NCCN(C)C [Compound 14f, (Z)-4-Chloro-N-(2-(dimethylamino)ethyl)-5-((5-fluoro-2-oxoindolin-3-ylidene)methyl)-2-methyl-1H-pyrrole-3-carboxamide]",1.56 ± 0.08,1.35 ± 0.28,1.69 ± 0.17,1.67 ± 0.18,271.8 to 274.2,0.0062 ± 0.0008
"CCN(CC)CCNC(=O)c1c(C)[nH]c(/C=C2\C(=O)Nc3ccc(Cl)cc32)c1Cl [Compound 14i, (Z)-4-Chloro-5-((5-chloro-2-oxoindolin-3-ylidene)methyl)-N-(2-(diethylamino)ethyl)-2-methyl-1H-pyrrole-3-carboxamide]",1.15 ± 0.2,> 100,0.32 ± 0.03,> 100,246 to 247,0.0112 ± 0.0026
"CCN(CC)CCNC(=O)c1c(Cl)[nH]c(/C=C2\C(=O)Nc3ccc(Br)cc32)c1C [Compound 14j, (Z)-5-((5-bromo-2-oxoindolin-3-ylidene)methyl)-2-chloro-N-(2-(diethylamino)ethyl)-4-methyl-1H-pyrrole-3-carboxamide]",34.2 ± 2.96,> 100,> 100,> 100,248.1 to 248.5,–
"CCN(CC)CCNC(=O)c1c(C)[nH]c(/C=C2\C(=O)Nc3ccccc32)c1Cl [Compound 14k, (Z)-4-Chloro-N-(2-(diethylamino)ethyl)-2-methyl-5-((2-oxoindolin-3-ylidene)methyl)-1H-pyrrole-3-carboxamide]",5.09 ± 1.01,> 100,> 100,> 100,238.5 to 240.1,–
"CCN(CC)CCNC(=O)c1c(C)[nH]c(/C=C2\C(=O)Nc3ccc(C)cc32)c1Cl [Compound 14l, (Z)-4-Chloro-N-(2-(diethylamino)ethyl)-2-methyl-5-((5-methyl-2-oxoindolin-3-ylidene)methyl)-1H-pyrrole-3-carboxamide]",64.4 ± 7.51,> 100,> 100,> 100,238.2 to 240,–
"CCN(CC)CCNC(=O)c1c(Cl)[nH]c(/C=C2\C(=O)Nc3ccc(F)cc32)c1Cl [Compound 14m, (Z)-2,4-Dichloro-N-(2-(diethylamino)ethyl)-5-((5-fluoro-2-oxoindolin-3-ylidene)methyl)-1H-pyrrole-3-carboxamide]",> 100,> 100,> 100,> 100,269.1 to 270.3,–
"CCN(CC)CCNC(=O)c1cc(/C=C2\C(=O)Nc3ccc(F)cc32)[nH]c1Cl [Compound 14n, (Z)-2-Chloro-N-(2-(diethylamino)ethyl)-5-((5-fluoro-2-oxoindolin-3-ylidene)methyl)-1H-pyrrole-3-carboxamide]",4.23 ± 0.65,> 100,3.37 ± 0.27,> 100,233.5 to 234.7,–
"CCN(CC)CCNC(=O)c1c(Cl)[nH]c(/C=C2\C(=O)Nc3ccc(F)cc32)c1C [Compound 14o, (Z)-2-Chloro-N-(2-(diethylamino)ethyl)-5-((5-fluoro-2-oxoindolin-3-ylidene)methyl)-4-methyl-1H-pyrrole-3-carboxamide]",1.51 ± 0.11,> 100,2.14 ± 0.26,> 100,243.4 to 244,–
"CCNCCNC(=O)c1c(Cl)[nH]c(/C=C2\C(=O)Nc3ccc(F)cc32)c1C [Compound 14p, (Z)-2-Chloro-N-(2-(ethylamino)ethyl)-5-((5-fluoro-2-oxoindolin-3-ylidene)methyl)-4-methyl-1H-pyrrole-3-carboxamide]",0.69 ± 0.07,1.24 ± 0.16,1.41 ± 0.09,1.66 ± 0.23,215 to 216.8,0.006 ± 0.0012
"CCc1c(/C=C2\C(=O)Nc3ccc(F)cc32)[nH]c(Cl)c1C(=O)NCCN(CC)CC [Compound 14q, (Z)-2-Chloro-N-(2-(diethylamino)ethyl)-4-ethyl-5-((5-fluoro-2-oxoindolin-3-ylidene)methyl)-1H-pyrrole-3-carboxamide]",34.4 ± 2.9,> 100,16.7 ± 2.7,> 100,245.2 to 246.8,–
